Measurements from BindingDB's records for patent US20230399319 (Japan Tobacco, 2023).

target: NACHT, LRR and PYD domains-containing protein 3 (Homo sapiens, UniProt Q96P20); test: Evaluation of NLRP3 Inflammasome Inhibitory Activity Assay
Method: The NLRP3 inflammasome inhibitory activity of test compounds were evaluated CM the basis of the inhibitory activity of the IL-1β, production in THP1-Null cells (Product Number: thp-null, InvivoGen). […] A solution containing a test compound (20 μL/well) was added to test compound-setting wells. […] The supernatant of the culture was cryonically stored (set at −20° C.) until measurement of IL-1β.

NACHT, LRR and PYD domains-containing protein 3, sequence (Q96P20 whole entry, the tested form may be a part): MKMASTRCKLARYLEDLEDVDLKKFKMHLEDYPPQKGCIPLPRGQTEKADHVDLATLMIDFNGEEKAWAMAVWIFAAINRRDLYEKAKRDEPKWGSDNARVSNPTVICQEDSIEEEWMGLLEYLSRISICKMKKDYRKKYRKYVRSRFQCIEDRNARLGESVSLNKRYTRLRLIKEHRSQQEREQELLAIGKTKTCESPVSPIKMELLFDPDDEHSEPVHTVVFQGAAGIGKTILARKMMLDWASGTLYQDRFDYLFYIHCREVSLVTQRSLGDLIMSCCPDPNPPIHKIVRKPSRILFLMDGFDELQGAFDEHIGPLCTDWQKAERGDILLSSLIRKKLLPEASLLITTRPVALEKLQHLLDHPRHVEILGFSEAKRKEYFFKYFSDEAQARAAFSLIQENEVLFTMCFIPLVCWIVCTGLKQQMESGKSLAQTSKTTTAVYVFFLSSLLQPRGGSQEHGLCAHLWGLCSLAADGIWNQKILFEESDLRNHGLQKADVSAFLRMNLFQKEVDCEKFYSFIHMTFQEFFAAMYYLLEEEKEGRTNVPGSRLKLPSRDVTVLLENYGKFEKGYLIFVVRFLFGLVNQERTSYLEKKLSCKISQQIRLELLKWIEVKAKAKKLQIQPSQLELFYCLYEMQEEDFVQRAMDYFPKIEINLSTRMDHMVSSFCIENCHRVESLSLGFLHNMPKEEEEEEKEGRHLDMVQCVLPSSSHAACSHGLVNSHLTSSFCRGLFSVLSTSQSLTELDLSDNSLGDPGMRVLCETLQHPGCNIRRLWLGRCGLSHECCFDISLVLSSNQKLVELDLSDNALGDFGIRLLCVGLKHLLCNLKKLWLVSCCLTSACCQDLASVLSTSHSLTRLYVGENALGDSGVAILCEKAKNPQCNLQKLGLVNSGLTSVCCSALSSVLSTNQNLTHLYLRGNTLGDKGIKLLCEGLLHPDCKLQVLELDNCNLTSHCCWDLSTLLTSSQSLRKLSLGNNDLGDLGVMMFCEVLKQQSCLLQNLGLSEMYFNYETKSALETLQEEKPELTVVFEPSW

Row | Structure (SMILES) | IC50 [nM]
1 | Cc1ccc(C(F)(F)F)cc1Nc1nc(C(=O)NS(=O)(=O)N2C[C@H]3COC[C@@H]3C2)co1 [US20230399319, Example 2-201] | 320
2 | CC(C)c1cc(Nc2nc(C(=O)NS(=O)(=O)N3CCCOCC3)co2)n(C(C)C)n1 [US20230399319, Example 2-202] | 2200
3 | Cc1ccc(C(F)(F)F)cc1Nc1nc(C(=O)NS(=O)(=O)N(C)CC2CCCCC2)co1 [US20230399319, Example 2-206] | 150
4 | Cc1ccc(C(F)(F)F)cc1Nc1nc(C(=O)NS(=O)(=O)N(Cc2ccccc2)C(C)C)co1 [US20230399319, Example 2-207] | 180
5 | Cc1ccc(C(F)(F)F)cc1Nc1nc(C(=O)NS(=O)(=O)N(C)CC2CCCC2)co1 [US20230399319, Example 2-208] | 89
6 | Cc1cn(C(C)C)nc1Nc1nc(C(=O)NS(=O)(=O)N2CCOCC(F)(F)C2)co1 [US20230399319, Example 2-212] | 280
7 | Cc1ccc(C(F)(F)F)cc1Nc1nc(C(=O)NS(=O)(=O)N2CCC(C#N)C2)co1 (configuration not stated) [US20230399319, Example 2-221] | 210
8 | CCCC1CCCN(S(=O)(=O)NC(=O)c2coc(Nc3cc(C(F)(F)F)ccc3C)n2)CC1 (configuration not stated) [US20230399319, Example 2-233] | 480
9 | Cc1ccc(C(F)(F)F)cc1Nc1nc(C(=O)NS(=O)(=O)N2CCCC(F)(F)CC2)co1 [US20230399319, Example 2-234] | 50
10 | COCCCN(C)S(=O)(=O)NC(=O)c1coc(Nc2cc(C(F)(F)F)ccc2C)n1 [US20230399319, Example 2-235] | 94
11 | Cc1ccc(C(F)(F)F)cc1Nc1nc(C(=O)NS(=O)(=O)N(C)Cc2cnccn2)co1 [US20230399319, Example 2-236] | 100
12 | Cc1ccc(C(F)(F)F)cc1Nc1nc(C(=O)NS(=O)(=O)N2CCCS(=O)(=O)CC2)co1 [US20230399319, Example 2-239] | 170
13 | CCC1(C#N)CCCN(S(=O)(=O)NC(=O)c2coc(Nc3cc(C(F)(F)F)ccc3C)n2)CC1 (configuration not stated) [US20230399319, Example 2-240] | 31
14 | CCCCS(=O)(=O)N1CCN(S(=O)(=O)NC(=O)c2coc(Nc3cc(C(F)(F)F)ccc3C)n2)CC1 [US20230399319, Example 2-247] | 22
15 | CCCCC1(C#N)CCCN(S(=O)(=O)NC(=O)c2coc(Nc3cc(C(F)(F)F)ccc3C)n2)CC1 (configuration not stated) [US20230399319, Example 2-249] | 30
16 | COCCC1(C#N)CCCN(S(=O)(=O)NC(=O)c2coc(Nc3cc(C(F)(F)F)ccc3C)n2)CC1 (configuration not stated) [US20230399319, Example 2-250] | 30
17 | CCC(=O)N(C)C1CCCN(S(=O)(=O)NC(=O)c2coc(Nc3cc(C(F)(F)F)ccc3C)n2)C1 (configuration not stated) [US20230399319, Example 2-255] | 210
18 | Cc1ccc(C(F)(F)F)cc1Nc1nc(C(=O)NS(=O)(=O)N2CCCC(C#N)(C(=O)N(C)C)CC2)co1 (configuration not stated) [US20230399319, Example 2-260] | 41
19 | Cc1ccc(C(F)(F)F)cc1Nc1nc(C(=O)NS(=O)(=O)N2CCCC(C#N)(C(=O)N3CCCC3)CC2)co1 (configuration not stated) [US20230399319, Example 2-261] | 28
20 | Cc1ccc(C(F)(F)F)cc1Nc1nc(C(=O)NS(=O)(=O)N2CCN(c3ncccn3)CC2)co1 [US20230399319, Example 2-265] | 1100
21 | Cc1ccc(C(F)(F)F)cc1Nc1nc(C(=O)NS(=O)(=O)N2CCN(S(=O)(=O)N(C)C)CC2)co1 [US20230399319, Example 2-266] | 50

Row | Structure (SMILES) | IC50 [nM]
22 | Cc1ccc(C(F)(F)F)cc1Nc1nc(C(=O)NS(=O)(=O)N2CCN(S(=O)(=O)C(C)C)CC2)co1 [US20230399319, Example 2-267] | 88
23 | COCCN(Cc1ccccc1)S(=O)(=O)NC(=O)c1coc(Nc2cc(C(F)(F)F)ccc2C)n1 [US20230399319, Example 2-268] | 55
24 | Cc1ccc(C(F)(F)F)cc1Nc1nc(C(=O)NS(=O)(=O)N2CCN(c3ccccc3)CC2)co1 [US20230399319, Example 2-274] | 180
25 | Cc1ccc(C(F)(F)F)cc1Nc1nc(C(=O)NS(=O)(=O)N(C)CCn2cccn2)co1 [US20230399319, Example 2-279] | 74
26 | Cc1ccc(C(F)(F)F)cc1Nc1nc(C(=O)NS(=O)(=O)N(C)CCS(C)(=O)=O)co1 [US20230399319, Example 2-280] | 420
27 | Cc1ccc(C(F)(F)F)cc1Nc1nc(C(=O)NS(=O)(=O)N2CCC(c3ccccc3)CC2)co1 [US20230399319, Example 2-282] | 2500
28 | Cc1ccc(C(F)(F)F)cc1Nc1nc(C(=O)NS(=O)(=O)N2CCCC(c3ccccc3)C2)co1 (configuration not stated) [US20230399319, Example 2-284] | 1400
29 | Cc1noc(C2(C)CCN(S(=O)(=O)NC(=O)c3coc(Nc4cc(C(F)(F)F)ccc4C)n3)CC2)n1 [US20230399319, Example 2-285] | 170
30 | Cc1ccc(C(F)(F)F)cc1Nc1nc(C(=O)NS(=O)(=O)N(C)CCc2ccccn2)co1 [US20230399319, Example 2-287] | 64
31 | COCC(C)CN(C)S(=O)(=O)NC(=O)c1coc(Nc2cc(C(F)(F)F)ccc2C)n1 (configuration not stated) [US20230399319, Example 2-296] | 81
32 | Cc1ccc(C)c(Nc2nc(C(=O)NS(=O)(=O)N3CCCC(C#N)CC3)co2)c1 (configuration not stated) [US20230399319, Example 2-300] | 190
33 | CCCS(=O)(=O)C1CCCN(S(=O)(=O)NC(=O)c2coc(Nc3nn(C(C)C)cc3C)n2)CC1 (configuration not stated) [US20230399319, Example 2-302] | 36
34 | COC[C@@H]1CCCN1S(=O)(=O)NC(=O)c1coc(Nc2cc(C)ccc2C)n1 [US20230399319, Example 2-303] | 140
35 | Cc1ccc(C(F)(F)F)cc1Nc1nc(C(=O)NS(=O)(=O)N2CCOCC(n3cccn3)C2)co1 (configuration not stated) [US20230399319, Example 2-304] | 59
36 | COCC1CCN(S(=O)(=O)NC(=O)c2coc(Nc3cc(C(F)(F)F)ccc3C)n2)C1 (configuration not stated) [US20230399319, Example 2-307] | 69
37 | CCCS(=O)(=O)C1CCCN(S(=O)(=O)NC(=O)c2coc(Nc3cc(C)ccc3C(C)C)n2)CC1 (configuration not stated) [US20230399319, Example 2-311] | 18
38 | Cc1ccc(C(F)(F)F)cc1Nc1nc(C(=O)NS(=O)(=O)N2CCCN(c3ncccn3)[C@H](C)C2)co1 [US20230399319, Example 2-313] | 22
39 | CCOC[C@@H]1CCCN1S(=O)(=O)NC(=O)c1coc(Nc2cc(C)ccc2C)n1 [US20230399319, Example 2-314] | 210
40 | CCCS(=O)(=O)C1CCCN(S(=O)(=O)NC(=O)c2coc(Nc3nc(C(F)(F)F)ccc3C(C)C)n2)CC1 (configuration not stated) [US20230399319, Example 2-315] | 85
41 | CCCS(=O)(=O)C1CCCN(S(=O)(=O)NC(=O)c2coc(Nc3cc(C(F)(F)F)ccc3C(C)C)n2)CC1 (configuration not stated) [US20230399319, Example 2-316] | 22
42 | Cc1ccc(C(F)(F)F)cc1Nc1nc(C(=O)NS(=O)(=O)N2CCCC(S(=O)(=O)C(C)C)CC2)co1 (configuration not stated) [US20230399319, Example 2-317] | 27

Row | Structure (SMILES) | IC50 [nM]
43 | COC[C@@H]1CCCN1S(=O)(=O)NC(=O)c1coc(Nc2cc(C)ccc2C(C)C)n1 [US20230399319, Example 2-322] | 270
44 | CCCOCC1CCN(S(=O)(=O)NC(=O)c2coc(Nc3cc(C)ccc3C)n2)CCO1 (configuration not stated) [US20230399319, Example 2-323] | 35
45 | Cc1cc(Nc2nc(C(=O)NS(=O)(=O)N3CCCOCC3)co2)c(C(C)C)cc1F [US20230399319, Example 2-334] | 26
46 | CCOCC1CCN(S(=O)(=O)NC(=O)c2coc(Nc3cc(C)c(F)cc3C(C)C)n2)CCO1 (configuration not stated) [US20230399319, Example 2-335] | 18
47 | Cc1cc(F)c(C(C)C)cc1Nc1nc(C(=O)NS(=O)(=O)N2CCCOCC2)co1 [US20230399319, Example 2-336] | 10
48 | CCOCC1CCN(S(=O)(=O)NC(=O)c2coc(Nc3cc(C(C)C)c(F)cc3C)n2)CCO1 (configuration not stated) [US20230399319, Example 2-337] | 13
49 | Cc1ccc(C(F)(F)F)cc1Nc1nc(C(=O)NS(=O)(=O)N(C)CCC(=O)N(C)C)co1 [US20230399319, Example 2-338] | 77
50 | Cc1cc(Nc2nc(C(=O)NS(=O)(=O)N3CCCOCC3)co2)c(C)cc1F [US20230399319, Example 2-339] | 30
51 | CCOCC1CCN(S(=O)(=O)NC(=O)c2coc(Nc3cc(C)c(F)cc3C)n2)CCO1 (configuration not stated) [US20230399319, Example 2-340] | 12
52 | Cc1ccc(C(C)C)cc1Nc1nc(C(=O)NS(=O)(=O)N2CCOC(CN(C)C)CC2)co1 (configuration not stated) [US20230399319, Example 2-341] | 88
53 | Cc1ccc(C)c(Nc2nc(C(=O)NS(=O)(=O)N3CCOC(COCC4CCC4)CC3)co2)c1 (configuration not stated) [US20230399319, Example 2-342] | 10
54 | COC1COCCN(S(=O)(=O)NC(=O)c2coc(Nc3cc(C(C)C)c(F)cc3C)n2)C1 (configuration not stated) [US20230399319, Example 2-343] | 16
55 | COC[C@@H]1CCN(S(=O)(=O)NC(=O)c2coc(Nc3cc(C)c(F)cc3C)n2)CCO1 [US20230399319, Example 2-347] | 55
56 | Cc1cc(F)c(C(C)C)cc1Nc1nc(C(=O)NS(=O)(=O)N2CCOC(CO)CC2)co1 (configuration not stated) [US20230399319, Example 2-348] | 28
57 | Cc1ccc(C)c(Nc2nc(C(=O)NS(=O)(=O)N3CCOC(CC#N)CC3)co2)c1 (configuration not stated) [US20230399319, Example 2-349] | 1200
58 | Cc1cc(F)c(C(C)C)cc1Nc1nc(C(=O)NS(=O)(=O)N2CCOCC(O)C2)co1 (configuration not stated) [US20230399319, Example 2-350] | 15
59 | Cc1cc(F)c(C(C)C)cc1Nc1nc(C(=O)NS(=O)(=O)N2CCOCC(C)(O)C2)co1 (configuration not stated) [US20230399319, Example 2-351] | 22
60 | CCOCC1CCN(S(=O)(=O)NC(=O)c2coc(Nc3cc(OC)c(F)cc3C)n2)CCO1 (configuration not stated) [US20230399319, Example 2-352] | 26
61 | Cc1cc(Nc2nc(C(=O)NS(=O)(=O)N3CCOC(COCC(C)(C)O)CC3)co2)c(C)cc1F (configuration not stated) [US20230399319, Example 2-353] | 16
62 | COC[C@H]1CCN(S(=O)(=O)NC(=O)c2coc(Nc3cc(C)c(F)cc3C)n2)CCO1 [US20230399319, Example 3-001] | 72
